Source: US5866087A, “Calixarene derivatives, their preparation process and their use for extracting actinides and lanthanides” (priority 1995, dated 1999)

Columns and labels:
[1] = supported liquid membrane transport into aqueous reextraction solution; assay type: physicochemical; settings: for Percentage transported in 6 h. 237 Np / Percentage transported in 6 h. 239 Pu / Percentage transported in 6 h. 241 Am / Percentage of 239Pu transported in 24 h / Percentage transported in 24 h. 237 Np / Percentage transported in 24 h. 241 Am: supported liquid membrane, 0.001 or 0.0001M calixarene (CMPO 10^-2 M); for Permeability (cm/h) 237 Np / Permeability (cm/h) 239 Pu / Permeability (cm/h) 241 Am: CELGARD 2500 membrane, nitrophenylhexyl ether with 0.001 or 0.0001M calixarene (CMPO 10^-2 M), reextraction 1 mole/l methylene diphosphonic acid
Source text: These examples use the second embodiment of the process according to the invention for extracting europium, neptunium, plutonium and americium from aqueous solutions having the same compositions as those used in examples 7 to 16. These examples use the device shown in the attached drawing.
This device comprises an enclosure 1 subdivided into two compartents 3 and 5 by a supported liquid membrane 7, constituted by a microporous polypropylene membrane marketed under the name CELGARD 2500 and having the following characteristics:
membrane thickness: 0.025 mm.
The pores of this membrane are filled with an organic phase constituted by nitrophenylhexyl ether incorporating 0.001 or 0.0001M of calixarene.
Compartment 3 contains 50 ml of aqueous solution (NaNO3 :4 mole/l, HNO3 : 1mole/l with Eu, Np, Pu, Am); and compartment 5 contains 50ml of an aqueous reextraction solution constituted by an aqueous solution with 1 mole/l of methylene diphosphonic acid.
The two solutions are stirred and the initial activity of the solution of compartment 3 is determined, followed by the activity of the aqueous reextraction solution of compartment 5 by liquid α spectrometry and the operation is continued for one day. From it is deduced the percentage of neptunium, plutonium, americium and europium recovered in the aqueous reextraction solution after 6 and 24 h.
The calixarenes used, the permeability (in cm h^-1) of the membrane to Np and Pu, as well as the %, at the end of 6 and 24 h,of Eu, Am, Np and Pu recovered are given in table 3.

[2] = liquid-liquid extraction from aqueous nitric solution, distribution coefficient D; assay type: physicochemical; settings: aqueous HNO3, NaNO3 4 mole/l; for D(distribution coefficient) 152-Eu: pH ≈0, 1 hour contacting; for D(distribution coefficient) 237-Np / D(distribution coefficient) 239-Pu / D(distribution coefficient) 241-Am: 1 hour
Experimental: In these examples, an evaluation takes place of the effectiveness of the calixarenes of table 1 for extracting plutonium, neptunium and americium, as well as europium (simulating all the trivalent lanthanides) of an aqueous solution containing one of these elements. The composition of the aqueous solution is as follows:
[…] Contacting takes place in a 20 ml polypropylene tube, which undergoes stirring. After 1 hour of contacting, the two phases are allowed to settle and the activity of each phase is counted by liquid scintillation or α and γ spectrometries.
The distribution coefficient D is then determined and this corresponds to the ratio of the activity of actinide in the organic phase to the activity of actinide in the aqueous phase.

[3] = calixarene 0.001M in nitrophenyloctylether, * = precipitation

## CCCCCCCCOc1c2cc(NC(=O)CP(=O)(c3ccccc3)c3ccccc3)cc1Cc1cc(NC(=O)CP(=O)(c3ccccc3)c3ccccc3)cc(c1OC)Cc1cc(NC(=O)CP(=O)(c3ccccc3)c3ccccc3)cc(c1OCCCCCCCC)Cc1cc(NC(=O)CP(=O)(c3ccccc3)c3ccccc3)cc(c1OC)C2 [Compound 9]
[1]
  Percentage transported in 6 h. 237 Np: 52.4%
  Percentage transported in 6 h. 239 Pu: 84.1%
  Percentage transported in 6 h. 241 Am: 91.3%
  Percentage of 239Pu transported in 24 h: 86%
  Percentage transported in 24 h. 237 Np: 75.2%
  Percentage transported in 24 h. 241 Am: 100%
  Permeability (cm/h) 237 Np: 1.6 cm/h
  Permeability (cm/h) 239 Pu: 4.2 cm/h
  Permeability (cm/h) 241 Am: 2.9 cm/h
[2]; calixarene 0.001M in nitrophenyloctylether
  D(distribution coefficient) 152-Eu: > 100
[2]; [3]
  D(distribution coefficient) 237-Np: 2
  D(distribution coefficient) 239-Pu: 110
  D(distribution coefficient) 241-Am: 280

## CCCCC(CC)COc1c2cc(NC(=O)CP(=O)(c3ccccc3)c3ccccc3)cc1Cc1cc(NC(=O)CP(=O)(c3ccccc3)c3ccccc3)cc(c1OCC(CC)CCCC)Cc1cc(NC(=O)CP(=O)(c3ccccc3)c3ccccc3)cc(c1OCC(CC)CCCC)Cc1cc(NC(=O)CP(=O)(c3ccccc3)c3ccccc3)cc(c1OCC(CC)CCCC)C2 (centres unmarked) [Compound 10]
[1]
  Percentage transported in 6 h. 237 Np: 19.8%
  Percentage transported in 6 h. 239 Pu: 53.5%
  Percentage transported in 6 h. 241 Am: 27.8%
  Percentage of 239Pu transported in 24 h: 76.6%
  Percentage transported in 24 h. 237 Np: 30.4%
  Percentage transported in 24 h. 241 Am: 62.4%
  Permeability (cm/h) 237 Np: 0.6 cm/h
  Permeability (cm/h) 239 Pu: 2 cm/h
  Permeability (cm/h) 241 Am: 0.5 cm/h
[2]; calixarene 0.0005M
  D(distribution coefficient) 152-Eu: 1.5
  D(distribution coefficient) 237-Np: 2
  D(distribution coefficient) 239-Pu: 20
  D(distribution coefficient) 241-Am: 4.5
